US20090123518A1, “Biodegradable implants with controlled bulk density” (priority 2007, published 2009)

Experiment: Osmotic pressure of the drug in water
Assay type: physicochemical
Conditions: in water at room temperature
Text: As an example of this discovery, the inventors selected leuprolide acetate as a sample compound. The inventors then experimentally determined that the osmotic pressure of leuprolide acetate in water is approximately 5 atmospheres at room temperature.
“Osmotic pressure of the drug” means the pressure that must be applied to a solution to prevent the net flow of solvent molecules (such as water) through a semipermeable membrane from a solution of lower drug concentration to a solution of higher drug concentration. The osmotic pressure of the drug can be experimentally determined with use of a vapor pressure osmometer, such as the Vapro® vapor pressure osmometer.

osmotic pressure: approximately 5 atmospheres
Compound: CCNC(=O)[C@@H]1CCCN1C(=O)[C@H](CCCNC(=N)N)NC(=O)[C@H](CC(C)C)NC(=O)[C@@H](CC(C)C)NC(=O)[C@H](Cc1ccc(O)cc1)NC(=O)[C@H](CO)NC(=O)[C@H](Cc1c[nH]c2ccccc12)NC(=O)[C@H](Cc1c[nH]cn1)NC(=O)[C@@H]1CCC(=O)N1 [leuprolide acetate]
